Measurements as given in the Kinase Knowledgebase extract (Sharma et al. 2016).

Biological target: MAPK14 (human) (UniProt Q16539)
Assay: Inhibition of MAPK14 Kinase Activity

Chain of MAPK14 (human) (Q16539 whole entry, looked up): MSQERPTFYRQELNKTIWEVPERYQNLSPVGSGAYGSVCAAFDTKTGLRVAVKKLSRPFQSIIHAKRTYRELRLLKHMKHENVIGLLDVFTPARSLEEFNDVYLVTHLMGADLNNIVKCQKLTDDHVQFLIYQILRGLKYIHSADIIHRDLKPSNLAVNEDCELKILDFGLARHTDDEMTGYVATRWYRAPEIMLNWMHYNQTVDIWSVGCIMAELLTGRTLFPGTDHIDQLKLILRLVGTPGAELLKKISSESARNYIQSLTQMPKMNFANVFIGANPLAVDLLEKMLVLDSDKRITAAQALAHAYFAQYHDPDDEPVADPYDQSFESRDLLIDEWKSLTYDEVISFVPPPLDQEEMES

Row | IC50 | SMILES
1 | 193 nM | COCCn1c(SC)nc(-c2ccc(F)cc2)c1-c1ccnc(NC(=O)/C=C/c2ccccc2)c1
2 | 83 nM | CCCCC(=O)Nc1cc(-c2c(-c3ccc(F)cc3)nc(SC)n2CCOC)ccn1
3 | 114 nM | COCCn1c(SC)nc(-c2ccc(F)cc2)c1-c1ccnc(NC(=O)C[C@@H](C)c2ccccc2)c1
4 | 26 nM | COCCn1c(SC)nc(-c2ccc(F)cc2)c1-c1ccnc(NCCc2ccccc2)c1
5 | 77 nM | COCCn1c(SC)nc(-c2ccc(F)cc2)c1-c1ccnc(NC(=O)C(C)Cc2ccccc2)c1 (stereo not given)
6 | 133 nM | COCCn1c(SC)nc(-c2ccc(F)cc2)c1-c1ccnc(NC(=O)C[C@H](C)c2ccccc2)c1
7 | 128 nM | COCCn1c(SC)nc(-c2ccc(F)cc2)c1-c1ccnc(NC(=O)C2CC2)c1
8 | 35 nM | COCCn1c(SC)nc(-c2ccc(F)cc2)c1-c1ccnc(NCC(C)c2ccccc2)c1 (stereo not given)
9 | 156 nM | COCCn1c(SC)nc(-c2ccc(F)cc2)c1-c1ccnc(NC(=O)C2CCCCC2)c1
10 | 1760 nM | COCCn1c(SC)nc(-c2ccc(F)cc2)c1-c1ccnc(NC(=O)C(C)(C)C)c1
11 | 115 nM | COCCn1c(SC)nc(-c2ccc(F)cc2)c1-c1ccnc(NC(=O)CCCc2ccccc2)c1
12 | 60 nM | COCCn1c(SC)nc(-c2ccc(F)cc2)c1-c1ccnc(NC(=O)CC(C)c2ccccc2)c1 (stereo not given)
13 | 93 nM | COCCn1c(SC)nc(-c2ccc(F)cc2)c1-c1ccnc(NC(=O)CCc2cccc(OC)c2)c1
14 | 392 nM | COCCn1c(SC)nc(-c2ccc(F)cc2)c1-c1ccnc(NC(=O)c2ccc(OC)cc2)c1
15 | 386 nM | COCCn1c(SC)nc(-c2ccc(F)cc2)c1-c1ccnc(NC(=O)Cc2ccccc2)c1
16 | 311 nM | CCC(C)C(=O)Nc1cc(-c2c(-c3ccc(F)cc3)nc(SC)n2CCOC)ccn1 (stereo not given)
17 | 97 nM | COCCn1c(SC)nc(-c2ccc(F)cc2)c1-c1ccnc(NC(=O)CCCc2ccc(OC)cc2)c1
18 | 103 nM | COCCn1c(SC)nc(-c2ccc(F)cc2)c1-c1ccnc(NC(=O)C(C)Oc2ccccc2)c1 (stereo not given)
19 | 123 nM | COCCn1c(SC)nc(-c2ccc(F)cc2)c1-c1ccnc(NC(=O)CCc2cc(OC)c(OC)c(OC)c2)c1
20 | 84 nM | COCCn1c(SC)nc(-c2ccc(F)cc2)c1-c1ccnc(NC(=O)CCc2ccc(OC)c(OC)c2OC)c1
21 | 90 nM | COCCn1c(SC)nc(-c2ccc(F)cc2)c1-c1ccnc(NC(=O)CCc2ccc(C)cc2)c1
22 | 458 nM | COCCn1c(SC)nc(-c2ccc(F)cc2)c1-c1ccnc(NC(=O)C2CCCC2)c1
23 | 2450 nM | COCCn1c(SC)nc(-c2ccc(F)cc2)c1-c1ccnc(NC(=O)CCc2ccc(C(C)(C)C)cc2)c1

Row | IC50 | SMILES
24 | 216 nM | COCCn1c(SC)nc(-c2ccc(F)cc2)c1-c1ccnc(NC(=O)CCc2ccc(OC)c(OC)c2)c1
25 | 108 nM | COCCn1c(SC)nc(-c2ccc(F)cc2)c1-c1ccnc(NC(=O)CC2CCCC2)c1
26 | 219 nM | COCCn1c(SC)nc(-c2ccc(F)cc2)c1-c1ccnc(NC(=O)CC2CCCCC2)c1
27 | 116 nM | COCCn1c(SC)nc(-c2ccc(F)cc2)c1-c1ccnc(NC(=O)C2CCC2)c1
28 | 220 nM | COCCn1c(SC)nc(-c2ccc(F)cc2)c1-c1ccnc(NC(=O)CCc2ccc(S(C)(=O)=O)cc2)c1
29 | 254 nM | COCCn1c(SC)nc(-c2ccc(F)cc2)c1-c1ccnc(NC(=O)CCc2ccc(SC)cc2)c1
30 | 108 nM | COCCn1c(SC)nc(-c2ccc(F)cc2)c1-c1ccnc(NC(C)=O)c1
31 | 244 nM | COCCn1c(SC)nc(-c2ccc(F)cc2)c1-c1ccnc(NC(=O)c2ccccc2)c1
32 | 213 nM | COCCn1c(SC)nc(-c2ccc(F)cc2)c1-c1ccnc(NC(=O)Cc2ccc(OC)cc2)c1
33 | 48 nM | COCCn1c(SC)nc(-c2ccc(F)cc2)c1-c1ccnc(NC(=O)CCc2ccc(OC)cc2)c1
34 | 196 nM | COCCn1c(SC)nc(-c2ccc(F)cc2)c1-c1ccnc(NC(=O)CCC2CCCCC2)c1
35 | 178 nM | COCCn1c(SC)nc(-c2ccc(F)cc2)c1-c1ccnc(NC(=O)CCc2ccc(OC)cc2OC)c1
36 | 195 nM | COCCn1c(SC)nc(-c2ccc(F)cc2)c1-c1ccnc(NC(=O)C(Oc2ccccc2)C(C)C)c1 (stereo not given)
37 | 115 nM | COCCn1c(SC)nc(-c2ccc(F)cc2)c1-c1ccnc(NC(=O)CCCCc2ccccc2)c1
38 | 91 nM | COCCn1c(SC)nc(-c2ccc(F)cc2)c1-c1ccnc(NC(=O)CCc2cccc(OC)c2OC)c1
39 | 63 nM | COCCn1c(SC)nc(-c2ccc(F)cc2)c1-c1ccnc(NC(=O)CCc2ccccc2)c1
40 | 1420 nM | COCCn1c(SC)nc(-c2ccc(F)cc2)c1-c1ccnc(N)c1
41 | 103 nM | COCCn1c(SC)nc(-c2ccc(F)cc2)c1-c1ccnc(NC(=O)CC(C)C)c1
42 | 168 nM | COCCn1c(SC)nc(-c2ccc(F)cc2)c1-c1ccnc(NC(=O)[C@H]2C[C@@H]2c2ccccc2)c1
43 | 179 nM | COCCn1c(SC)nc(-c2ccc(F)cc2)c1-c1ccnc(NC(=O)CCC(C)C)c1
44 | 224 nM | COCCn1c(SC)nc(-c2ccc(F)cc2)c1-c1ccnc(NC(=O)CCC2CCCC2)c1
45 | 93 nM | COCCn1c(SC)nc(-c2ccc(F)cc2)c1-c1ccnc(NC(=O)CCc2ccccc2OC)c1
